In PubChem BioAssay (NCI):
Where “and” joins values, the source holds several entries; their conditions need not be identical. Equal values may be shown once.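 Compound exposure: 48 hours, 5 concentrations, 96-well plates. GI50: concentration for 50% inhibition of growth. TGI: total growth inhibition.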 *1 amine or outer side, *2 acyl side, *3 side chain or, on linkers, in order; H or OH if unused. Where a SMILES comes first, the peptide text is derived from it. Bridges are numbered along the chain shown (N, C = ends). Roman numbers before positions name the chains, in order. [ ]: non-standard residue; d: D form. Actinocin(9to1) = Cc1c2oc3c(C)ccc(C(=O)[*:1])c3nc-2c(C(=O)[*:2])c(N)c1=O; NMeH = CN[CH](Cc1c[nH]cn1)C(=O)O; NMeV = CN[CH](C(=O)O)C(C)C; Sar = CNCC(=O)O

Key:
Assay in all cases: NCI tumour cell line growth inhibition, 48 h
A549 NSCLC = system: A549 NSCLC
NCI-H226 lung = system: NCI-H226 lung
DU-145 prostate = system: DU-145 prostate
786-0 renal = system: 786-0 renal
SF-295 CNS = system: SF-295 CNS
MDA-MB-231 breast = system: MDA-MB-231 breast
HCT-116 colon = system: HCT-116 colon
OVCAR-5 ovarian = system: OVCAR-5 ovarian
OVCAR-8 ovarian = system: OVCAR-8 ovarian
TK-10 renal = system: TK-10 renal
SNB-19 CNS = system: SNB-19 CNS
RPMI-8226 leukemia = system: RPMI-8226 leukemia

Structure (SMILES)	TGI (A549 NSCLC) [µM]	TGI (NCI-H226 lung)	TGI (DU-145 prostate) [µM]	TGI (786-0 renal) [µM]	TGI (SF-295 CNS)	TGI (MDA-MB-231 breast) [µM]	TGI (HCT-116 colon) [µM]	TGI (OVCAR-5 ovarian) [µM]	TGI (OVCAR-8 ovarian) [µM]	TGI (TK-10 renal)	TGI (SNB-19 CNS) [µM]	TGI (RPMI-8226 leukemia) [µM]	GI50 (NCI-H226 lung) [µM]	GI50 (MDA-MB-231 breast) [µM]	GI50 (TK-10 renal) [µM]	GI50 (RPMI-8226 leukemia) [µM]	GI50 (DU-145 prostate) [µM]	GI50 (SF-295 CNS) [µM]	GI50 (OVCAR-5 ovarian) [µM]	GI50 (SNB-19 CNS) [µM]
ClC(Cl)(Cl)C1CCOC1n1nnc2ccccc21 (configuration not stated)	> 100	> 100 µM	> 100	> 100	> 100 µM	> 100	> 100	> 100	> 100	> 100 µM										
COc1ccc(C2C3=C(N=C4SC(C(C)=O)=C(C)N42)c2ccccc2CC3)cc1 (configuration not stated)	> 100	> 100 µM	> 100	> 100	> 100 µM	> 100	> 100	> 100	> 100		> 100	29.9								
CC(C)(C)OC(=O)N/C(C=O)=C\C1CCCCC1	> 100	55.1 µM	95.9	42.6	99.3 µM	44.2	36	42.3	31.7	32.9 µM	76.1									
Cc1ccc(S(=O)(=O)NC(CCC(=O)NNc2ccccc2)C(=O)NNc2ccccc2)cc1 (configuration not stated)	48.8	> 100 µM		> 100	> 100 µM	> 100	> 100	> 100	> 100	46.5 µM	> 100	> 100								
CC(C)(C)OC(=O)NC12C3C4C1C1C2C3C41NC(=O)OC(C)(C)C (configuration not stated)	> 100		> 100	> 100	> 100 µM	92.1	> 100	> 100	> 100	> 100 µM	> 100									
NC(Cc1ccc(OCc2ccccc2)cc1)C(=O)NC(Cc1ccccc1)C(=O)Oc1c(Cl)c(Cl)c(Cl)c(Cl)c1Cl (configuration not stated)	37.5	26.5 µM	27			25.7	31.3	31.1	31.8	28.9 µM	34	> 100								
CCc1cccc2c3c([nH]c12)-c1ccccc1NC(=O)C3	> 100	> 100 µM	> 100	> 100	> 100 µM	> 100		> 100	> 100	> 100 µM	> 100	> 100								
COc1cc2cc(C(=O)N3CC(COS(C)(=O)=O)c4ccc(NC(=O)OCc5ccccc5)cc43)[nH]c2c(OC)c1OC (configuration not stated)	> 100	> 100 µM	> 100	> 100	> 100 µM	> 100	> 100	> 100	> 100	> 100 µM	> 100									
COc1ccccc1OCC(COC(=O)Nc1ccccc1)OC(=O)Nc1ccccc1 (configuration not stated)	> 100	> 100 µM			> 100 µM		> 100	> 100	> 100	> 100 µM	> 100									
Cc1c(CNc2ccc(C(=O)NC(CCCNC(=O)c3ccccc3C(=O)O)C(=O)O)cc2)cnc2nc(N)nc(N)c12 (configuration not stated)	> 100	2.91 µM	> 100	> 100		> 100		> 100			> 100	> 100	0.00248	> 100	> 100	0.0216				
CC(C(=O)OCc1ccccc1)N(Cc1ccccc1)Cc1ccccc1 (configuration not stated)	> 100				> 100 µM		> 100	> 100	> 100	> 100 µM	> 100	> 100								
Nc1ccc(-c2nc3ccccc3s2)cc1Cl	> 100	> 100 µM	> 100	> 100	> 100 µM	> 100	> 100	> 100	> 100		> 100	> 100								
C(/C=N/NC1=NCCCCN1)=N\NC1=NCCCCN1	> 100	> 100 µM		> 100	> 100 µM	> 100	> 100	> 100	> 100	> 100 µM	> 100									
Cc1cc(C)c2c(c1)CC1(Cc3cc(C)c(C)cc3C1=O)C2=O (configuration not stated)	> 100	> 100 µM	> 100	> 100	> 100 µM	> 100		> 100	> 100	> 100 µM	> 100	> 100								
CC1=NN(c2cccc(Cl)c2)C2(C1=Cc1ccc(O)cc1)C(Cl)C(=O)N2c1nc2ccccc2s1 (configuration not stated)		> 100 µM	67.9	80.6	57 µM	76.1	31.3	> 100	87.8	> 100 µM		55.8								
N#Cc1nc2cc(Cl)ccc2nc1N1CCN(c2ccc([N+](=O)[O-])cc2)CC1	> 100		> 100	> 100	> 100 µM	> 100	> 100	> 100	> 100	> 100 µM	> 100	> 100								
COc1cc2ccc(C(=O)NCCCNC(=O)c3ccc4cc(OC)c(OC)cc4c3)cc2cc1OC	> 100	> 100 µM	> 100	> 100	> 100 µM	> 100	> 100	> 100	> 100	> 100 µM	> 100									
O=C(CCN1CCOCC1)/C(=C/c1ccccc1)c1ccccc1	36.6	21.3 µM			25.7 µM		12.3	30.4	4.1		23.4	8.05								
CC[C@@]1(O)C(=O)OCc2c1cc1n(c2=O)Cc2c-1nc1ccc(O)cc1c2[Si](C)(C)C(C)(C)C	1.19	0.015 µM	0.0142	< 0.0255	1.32 µM	20.6	0.147	2.58	> 42.3	> 92.7 µM		4.77								

Structure (SMILES)	TGI (A549 NSCLC) [µM]	TGI (NCI-H226 lung)	TGI (DU-145 prostate) [µM]	TGI (786-0 renal) [µM]	TGI (SF-295 CNS)	TGI (MDA-MB-231 breast) [µM]	TGI (HCT-116 colon) [µM]	TGI (OVCAR-5 ovarian) [µM]	TGI (OVCAR-8 ovarian) [µM]	TGI (TK-10 renal)	TGI (SNB-19 CNS) [µM]	TGI (RPMI-8226 leukemia) [µM]	GI50 (NCI-H226 lung) [µM]	GI50 (MDA-MB-231 breast) [µM]	GI50 (TK-10 renal) [µM]	GI50 (RPMI-8226 leukemia) [µM]	GI50 (DU-145 prostate) [µM]	GI50 (SF-295 CNS) [µM]	GI50 (OVCAR-5 ovarian) [µM]	GI50 (SNB-19 CNS) [µM]
CSC(SC)=C(C#N)C(=O)Nc1cccc(Cl)c1	> 100	> 100 µM		> 100	> 100 µM	> 100	> 100	> 100	> 100	> 100 µM	> 100									
C#CC(O)(c1nc2ccccc2s1)c1nc2ccccc2s1	> 100		> 100	38.9	76.8 µM	39.7	30.2	51.6	51.5	> 100 µM	> 100	76.8								
CC(C)(C)OC(=O)[C@@H]1CCC(=O)N1C1(c2ccccc2)c2ccccc2-c2ccccc21	> 100	> 100 µM	> 100	> 100	61.1 µM	86.1	> 100	> 100	> 100	> 100 µM	> 100									
Fc1cccc(F)c1C1SCc2nc3cc(Cl)c(Cl)cc3n21 (configuration not stated)	> 100		> 100	> 100	> 100 µM	> 100	> 100	> 100	> 100	> 100 µM	> 100	> 100								
C#CC[C@@]12CC(=O)C[C@@H]1CCC1(C2)OCCO1 (tested in a mixture with another compound)	> 100	> 100 µM			> 100 µM		> 100	> 100	> 100		> 100	> 100								
O=c1c2cc(C(F)(F)F)ccc2sc2c(NCCCNCCO)nc3ccccc3c12			3.23		3.3 µM	2.63		3.04			3.1			1.28			1.74	1.81	1.63	1.65
Clc1sc(Cl)c2c1[C@@H](Cl)C[C@@H]2Cl	> 100	> 100 µM	> 100	> 100	> 100 µM	> 100	> 100	> 100	> 100	> 100 µM										
O=C(NNC(=S)Nc1ccccc1)c1nsc2ccccc12	> 100						> 100	> 100	> 100	> 100 µM	> 100	> 100								
CCn1c(=O)c2nc(SC)sc2n(-c2ccc(C)cc2)c1=O	> 100	> 100 µM	> 100		> 100 µM	> 100	> 100	> 100	> 100	> 100 µM	> 100	> 100								
N#C/C(=C/C=C/c1ccco1)C(N)=O		> 10 µM	> 10	> 10	> 10 µM	> 10		> 10	> 10	> 10 µM										
Cc1c2oc3c(C)ccc(C(=O)NC4C(=O)NC(Cc5ccccc5)C(=O)N5CCCC5C(=O)N(C)CC(=O)N(C)C(C(C)C)C(=O)OC4C)c3nc-2c(C(=O)NC2C(=O)NC(Cc3ccccc3)C(=O)N3CCCC3C(=O)N(C)CC(=O)N(C)C(C(C)C)C(=O)OC2C)c(N)c1=O (configuration not stated) (I: TFP[Sar][NMeV] / II: TFP[Sar][NMeV]; ester I:1-I:C, II:1-II:C; linker I:N-II:N via Actinocin(9to1); configuration not given here)	0.0252	0.0214 µM and 0.0312 µM			0.0465 µM and 0.413 µM	0.255	0.00736	0.0551	1.53	1.65 µM and 5.66 µM	1.62	> 100			0.0102					< 0.001
O=C(O)CCC(=O)OCN1C(=O)C2C3C=CC(C2C1=O)C1C2C(=O)N(COC(=O)CCC(=O)O)C(=O)C2C31 (configuration not stated)	> 100	> 100 µM		> 100	> 100 µM		> 54.3	> 100	> 100	> 100 µM	> 100	52.5								
C/C=C(\C)C(=O)OC1CC(OC(C)=O)C2(C(=O)OC)COC3C2C1(C)C1C2(C(=O)OC)OCC1(C3O)C1(O)C3CC(C4(O)C=COC4O3)C1(C)O2 (configuration not stated)	> 100	> 100 µM	> 100	> 100	> 100 µM	> 100	> 100	> 100	> 100	> 100 µM		> 100								
Cc1cc(-n2nnc(C(=O)O)c2-c2ccccc2)c2ccc(Cl)cc2n1	> 100	> 100 µM	> 100	> 100	> 100 µM	> 100	> 100	> 100	> 100	> 100 µM	> 100									
O=[N+]([O-])c1ccc(NN=C2CN3CCN(C2)c2ccccc23)c([N+](=O)[O-])c1	> 100		> 100	> 100	> 100 µM	> 100	> 100	> 100	> 100	> 100 µM	> 100									
CC1C(NNC(N)=O)Oc2cc3c(cc2C1c1ccccc1O)OCO3 (configuration not stated)	> 100	> 100 µM	> 100		76.2 µM	> 100	76.8	> 100		> 100 µM	> 100	78.6								
O=P1(N2CCOCC2)OCCO1	> 100		> 100	> 100	> 100 µM		> 100	> 100			> 100	> 100								
Cc1c2oc3c(C)ccc(C(=O)NC4C(=O)NC(C(C)C)C(=O)N5CCCC5C(=O)N(C)CC(=O)N(C)C(Cc5cnc[nH]5)C(=O)OC4C)c3nc-2c(C(=O)NC2C(=O)NC(C(C)C)C(=O)N3CCCC3C(=O)N(C)CC(=O)N(C)C(Cc3cnc[nH]3)C(=O)OC2C)c(N)c1=O (configuration not stated) (I: TVP[Sar][NMeH] / II: TVP[Sar][NMeH]; ester I:1-I:C, II:1-II:C; linker I:N-II:N via Actinocin(9to1); configuration not given here)	> 100	> 100 µM		> 100	> 100 µM	> 100		> 100	> 100	> 100 µM	> 100	> 100								
CC(C)(C)c1ccc(C(O)CCCN2CCC(C(O)(c3ccccc3)c3ccccc3)CC2)cc1 (configuration not stated)												5.49				1.94				
